Read-outs that look alike come from different tables or passages of the source.
Experiments:
[1] = tested on: breast line MDA468; assay: In vitro cell culture growth assay (MTS), MDA468; type: cell-based, human; conditions: MDA468 cells, three days after drug treatment
Outline: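 Growth measured as percent of same-plate vehicle control by MTS metabolic dye conversion (A490). Breast MDA468 and prostate LNCap cells, plated a day ahead, were exposed to compounds for 3 days.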

[2] = biological target: PI3K (Homo sapiens, UniProt P42336); assay: Fluorescence polarization assay for PI3K; type: biochemical;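 also: PI3K kinase reaction on PIP2 with ATP, 30-60 min, product sensed by GST-GRP with red probe in fluorescence polarization (mP), controls without enzyme and at zero time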
PI3K, sequence (P42336 whole entry): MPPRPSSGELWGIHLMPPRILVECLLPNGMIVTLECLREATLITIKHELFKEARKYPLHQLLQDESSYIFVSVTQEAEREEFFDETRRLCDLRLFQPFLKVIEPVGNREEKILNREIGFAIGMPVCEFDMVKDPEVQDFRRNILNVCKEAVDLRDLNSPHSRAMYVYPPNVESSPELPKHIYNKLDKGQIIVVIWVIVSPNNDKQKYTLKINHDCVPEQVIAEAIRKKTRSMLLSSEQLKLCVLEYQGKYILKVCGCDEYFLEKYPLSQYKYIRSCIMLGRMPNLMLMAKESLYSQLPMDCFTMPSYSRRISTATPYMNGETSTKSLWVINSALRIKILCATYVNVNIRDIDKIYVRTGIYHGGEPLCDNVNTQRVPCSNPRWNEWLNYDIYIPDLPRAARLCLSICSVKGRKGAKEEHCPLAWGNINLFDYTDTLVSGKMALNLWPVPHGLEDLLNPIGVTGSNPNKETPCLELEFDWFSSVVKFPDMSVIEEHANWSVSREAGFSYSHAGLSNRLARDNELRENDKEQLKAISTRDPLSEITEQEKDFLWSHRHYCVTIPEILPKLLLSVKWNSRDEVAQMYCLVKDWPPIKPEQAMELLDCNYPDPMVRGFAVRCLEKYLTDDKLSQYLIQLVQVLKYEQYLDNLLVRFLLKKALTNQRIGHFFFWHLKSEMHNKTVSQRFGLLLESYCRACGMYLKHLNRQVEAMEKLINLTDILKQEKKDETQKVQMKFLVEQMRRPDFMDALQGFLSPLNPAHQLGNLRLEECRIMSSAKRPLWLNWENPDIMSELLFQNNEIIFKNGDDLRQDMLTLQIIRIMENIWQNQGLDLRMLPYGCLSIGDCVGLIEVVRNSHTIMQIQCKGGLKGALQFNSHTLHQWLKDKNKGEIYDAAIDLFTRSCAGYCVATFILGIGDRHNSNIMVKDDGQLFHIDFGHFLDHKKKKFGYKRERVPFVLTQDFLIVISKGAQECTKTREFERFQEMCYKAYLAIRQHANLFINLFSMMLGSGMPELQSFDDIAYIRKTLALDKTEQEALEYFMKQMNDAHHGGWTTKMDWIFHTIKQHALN
PI3K, sequence (P27986 whole entry partner): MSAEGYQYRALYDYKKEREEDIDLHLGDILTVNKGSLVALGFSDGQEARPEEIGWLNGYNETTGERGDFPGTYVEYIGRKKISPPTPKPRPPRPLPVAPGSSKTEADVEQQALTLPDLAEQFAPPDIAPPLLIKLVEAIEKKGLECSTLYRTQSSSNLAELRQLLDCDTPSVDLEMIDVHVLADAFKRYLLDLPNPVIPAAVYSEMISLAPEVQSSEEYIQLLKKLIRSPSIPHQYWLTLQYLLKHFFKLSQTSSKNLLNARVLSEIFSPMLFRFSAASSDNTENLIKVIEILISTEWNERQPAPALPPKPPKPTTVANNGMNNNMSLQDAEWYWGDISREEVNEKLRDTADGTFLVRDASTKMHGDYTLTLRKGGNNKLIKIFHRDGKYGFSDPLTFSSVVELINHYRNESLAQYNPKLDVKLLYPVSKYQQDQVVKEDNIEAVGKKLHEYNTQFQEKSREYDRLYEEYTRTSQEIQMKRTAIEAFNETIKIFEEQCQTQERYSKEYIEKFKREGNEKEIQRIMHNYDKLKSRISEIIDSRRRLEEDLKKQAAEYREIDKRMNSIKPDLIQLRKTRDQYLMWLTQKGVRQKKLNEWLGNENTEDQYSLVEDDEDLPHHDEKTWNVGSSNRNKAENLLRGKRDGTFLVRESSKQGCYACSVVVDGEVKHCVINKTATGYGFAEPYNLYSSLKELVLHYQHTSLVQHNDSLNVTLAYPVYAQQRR

[3] = tested on: prostate line LNCap; assay: In vitro cell culture growth assay (MTS), LNCap; type: cell-based, human; conditions: LNCap cells, three days after drug treatment;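 also: viable cell density read by absorbance at 490 nm, growth expressed as percent of vehicle-treated cells on the same plate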

Compound	IC50 ([1]; Homo sapiens, 72 h) [nM]	IC50 ([2]; PI3Kα, read-out: PI3Kα IC50) [nM]	IC50 ([3]; Homo sapiens, LNCaP, 72 h) [nM]	IC50 ([2]; PI3Kα IC50, PI3Kα) [nM]	IC50 ([3]; Homo sapiens, 72 h) [nM]	IC50 [1] [nM]	IC50 [3] [nM]
CNC(=O)Nc1ccc(-c2nc(N3CCOCC3)c3cnn(C4CCN(Cc5ccc(Br)nc5)CC4)c3n2)cc1 [Example 389, 1-[4-(1-{1-[(6-bromopyridin-3-yl)methyl]piperidin-4-yl}-4-morpholin-4-yl-1H-pyrazolo[3,4-d]pyrimidin-6-yl)phenyl]-3-methylurea]	100	31	27				
CNC(=O)Nc1ccc(-c2nc(N3CCOCC3)c3cnn(C4CCN(Cc5ccncc5)CC4)c3n2)cc1 [Compound 426, 1-methyl-3-(4-{4-morpholin-4-yl-1-[1-(pyridin-4-ylmethyl)piperidin-4-yl]-1H-pyrazolo[3,4-d]pyrimidin-6-yl}phenyl)urea]	700	112	60				
C=CCNC(=O)Nc1ccc(-c2nc(N3CCOCC3)c3cnn(C4CCN(Cc5ccccc5)CC4)c3n2)cc1 [Example 263, 1-allyl-3-{4-[1-(1-benzylpiperidin-4-yl)-4-morpholin-4-yl-1H-pyrazolo[3,4-d]pyrimidin-6-yl]phenyl}urea]	1800	268	250				
COC(=O)N1CCC(n2ncc3c(N4CCOCC4)nc(-c4ccc(NC(=O)Oc5ccccc5F)cc4)nc32)CC1 [Compound 866, methyl 4-[6-(4-{[(2-fluorophenoxy)carbonyl]amino}phenyl)-4-morpholin-4-yl-1H-pyrazolo[3,4-d]pyrimidin-1-yl]piperidine-1-carboxylate]	30000			12000	12000		
CN(C)CCCn1ncc2c(N3CCOCC3)nc(-c3cccc(O)c3)nc21 [Compound 163]	6000	60	1500				
CNC(=O)Nc1ccc(-c2nc(N3CCOCC3)c3cnn(C4CCN(S(C)(=O)=O)CC4)c3n2)cc1 [Compound 759, 1-methyl-3-(4-{1-[1-(methylsulfonyl)piperidin-4-yl]-4-morpholin-4-yl-1H-pyrazolo[3,4-d]pyrimidin-6-yl}phenyl)urea]	480	78	400				
CNC(=O)Nc1ccc(-c2nc(N3CCOCC3)c3cnn(C4CCN(Cc5cncc(Br)c5)CC4)c3n2)cc1 [Example 393, 1-[4-(1-{1-[(5-bromopyridin-3-yl)methyl]piperidin-4-yl}-4-morpholin-4-yl-1H-pyrazolo[3,4-d]pyrimidin-6-yl)phenyl]-3-methylurea]	600	72	95				
O=C1CCCN1CCn1ncc2c(N3CCOCC3)nc(-c3ccc4[nH]ccc4c3)nc21 [Compound 161]	60000	3510	14000				
COc1ccc(CN2CCC(n3ncc4c(N5CCOCC5)nc(-c5ccc6[nH]ccc6c5)nc43)CC2)cn1 [Compound 176]	2600	352	1000				
CNC(=O)Nc1ccc(-c2nc(N3CCOCC3)c3cnn(C4CCN(CC(N)=O)CC4)c3n2)cc1 [Example 332, 2-[4-(6-{4-[(methylcarbamoyl)amino]phenyl}-4-morpholin-4-yl-1H-pyrazolo[3,4-d]pyrimidin-1-yl)piperidin-1-yl]acetamide]	1000	66	600				
CNC(=O)Nc1ccc(-c2nc(N3CCOCC3)c3cnn(C4CCN(Cc5ccccc5Cl)CC4)c3n2)cc1 [Compound 641, 1-(4-{1-[1-(2-chlorobenzyl)piperidin-4-yl]-4-morpholin-4-yl-1H-pyrazolo[3,4-d]pyrimidin-6-yl}phenyl)-3-methylurea]		35				180	38
O=C(CCN1CCCCC1)Nc1ccc(-c2nc(N3CCOCC3)c3cnn(-c4ccccc4)c3n2)cc1 [Compound 137]	1200	100	2800				
O=C(NCC(F)(F)F)Nc1ccc(-c2nc(N3CCOCC3)c3cnn(C4CCN(Cc5ccccc5)CC4)c3n2)cc1 [Compound 535, 1-{4-[1-(1-benzylpiperidin-4-yl)-4-morpholin-4-yl-1H-pyrazolo[3,4-d]pyrimidin-6-yl]phenyl}-3-(2,2,2-trifluoroethyl)urea]	1300	590	320				
COC(=O)N1CCC(n2ncc3c(N4CCOCC4)nc(-c4ccc(NC(=O)Nc5ccncc5F)cc4)nc32)CC1 [Compound 864, methyl 4-[6-(4-{[(3-fluoropyridin-4-yl)carbamoyl]amino}phenyl)-4-morpholin-4-yl-1H-pyrazolo[3,4-d]pyrimidin-1-yl]piperidine-1-carboxylate]	98	116	27.4				
Nc1ccc(-c2nc(N3CCOCC3)c3cnn(C4CCC5(CC4)OCCO5)c3n2)cc1 [Compound 320, 4-[1-(1,4-dioxaspiro[4.5]dec-8-yl)-4-morpholin-4-yl-1H-pyrazolo[3,4-d]pyrimidin-6-yl]aniline]	7200	2050	1100				
CCNC(=O)Nc1ccc(-c2nc(N3CCOCC3)c3cnn(C4CCN(C(=O)OC)CC4)c3n2)cc1 [Compound 731, methyl 4-(6-{4-[(ethylcarbamoyl)amino]phenyl}-4-morpholin-4-yl-1H-pyrazolo[3,4-d]pyrimidin-1-yl)piperidine-1-carboxylate]	70	490	< 27				
CNC(=O)Nc1ccc(-c2nc(N3CCOCC3)c3cnn(C4CCN(C(=O)c5cccc(C(F)(F)F)c5)CC4)c3n2)cc1 [Compound 605, 1-methyl-3-[4-(4-morpholin-4-yl-1-{1-[3-(trifluoromethyl)benzoyl]piperidin-4-yl}-1H-pyrazolo[3,4-d]pyrimidin-6-yl)phenyl]urea]	160	76	45				
methyl [4-(1-{1-[(6-fluoropyridin-3-yl)methyl]piperidin-4-yl}-4-morpholin-4-yl-1H-pyrazolo[3,4-d]pyrimidin-6-yl)phenyl]carbamate [Compound 697]		1200				6000	900
COC(=O)N1CCC(n2ncc3c(N4CCOCC4)nc(-c4ccc(NC(=O)OCC(F)(F)F)cc4)nc32)CC1 [Compound 908, methyl 4-[4-morpholin-4-yl-6-(4-{[(2,2,2-trifluoroethoxy)carbonyl]amino}phenyl)-1H-pyrazolo[3,4-d]pyrimidin-1-yl]piperidine-1-carboxylate]	17000	> 10000	1300				
O=C(Nc1cccnc1)Nc1ccc(-c2nc(N3CCOCC3)c3cnn(C4CCN(Cc5cccnc5)CC4)c3n2)cc1F [Compound 618, 1-(2-fluoro-4-{4-morpholin-4-yl-1-[1-(pyridin-3-ylmethyl)piperidin-4-yl]-1H-pyrazolo[3,4-d]pyrimidin-6-yl}phenyl)-3-pyridin-3-ylurea]	150	54	40				
COC(=O)Nc1ccc(-c2nc(N3CCOCC3)c3cnn(C4CCN(C(=O)c5ccccc5Cl)CC4)c3n2)cc1 [Compound 688, methyl (4-{1-[1-(2-chlorobenzoyl)piperidin-4-yl]-4-morpholin-4-yl-1H-pyrazolo[3,4-d]pyrimidin-6-yl}phenyl)carbamate]		778				750	250
COC(=O)N1CCC(n2ncc3c(N4CCOCC4)nc(-c4ccc(NC(=O)Oc5ccc(F)cc5)cc4)nc32)CC1 [Compound 948, methyl 4-[6-(4-{[(4-fluorophenoxy)carbonyl]amino}phenyl)-4-morpholin-4-yl-1H-pyrazolo[3,4-d]pyrimidin-1-yl]piperidine-1-carboxylate]	700			8830	220		
CONC(=O)Nc1ccc(-c2nc(N3CCOCC3)c3cnn(C4CCN(C(=O)c5cccnc5)CC4)c3n2)cc1 [Example 308, 1-methoxy-3-(4-{4-morpholin-4-yl-1-[1-(pyridin-3-ylcarbonyl)piperidin-4-yl]-1H-pyrazolo[3,4-d]pyrimidin-6-yl}phenyl)urea]	3000	1810	800				
c1cc2cc(-c3nc(N4CCOCC4)c4cnn(C5CCCCO5)c4n3)ccc2[nH]1 (stereo not drawn) [Compound 928, 6-(1H-indol-5-yl)-4-morpholin-4-yl-1-(tetrahydro-2H-pyran-2-yl)-1H-pyrazolo[3,4-d]pyrimidine]		2420				1000	4200
COC(=O)Nc1ccc(-c2nc(N3CCOCC3)c3cnn(C4CCN(CC(=O)c5ccccc5)CC4)c3n2)cc1 [Compound 457, methyl (4-{4-morpholin-4-yl-1-[1-(2-oxo-2-phenylethyl)piperidin-4-yl]-1H-pyrazolo[3,4-d]pyrimidin-6-yl}phenyl)carbamate]	1800	585	500				
COC(=O)Nc1ccc(-c2nc(N3CCOCC3)c3cn[nH]c3n2)cc1 [Compound 525, methyl [4-(4-morpholin-4-yl-1H-pyrazolo[3,4-d]pyrimidin-6-yl)phenyl]carbamate]	12000	612	3000				
CNC(=O)Nc1ccc(-c2nc(N3CCOCC3)c3cnn(C4CCN(C(=O)N(C)C)CC4)c3n2)cc1 [Compound 717, N,N-dimethyl-4-(6-{4-[(methylcarbamoyl)amino]phenyl}-4-morpholin-4-yl-1H-pyrazolo[3,4-d]pyrimidin-1-yl)piperidine-1-carboxamide]		209				480	200
Oc1cccc(-c2nc(N3CCOCC3)c3cn[nH]c3n2)c1 [Example 204, 3-(4-morpholin-4-yl-1H-pyrazolo[3,4-d]pyrimidin-6-yl)phenol]	8000	26	2500				
